Assay results published in patent US5192784A, “Etanidazole injectable solution” (Du Pont Merck Pharmaceutical Company, priority 1992, dated 1993).
Values after ≈ are worked out from the molar mass of the structure shown.

How the values were obtained:
[1] = Chemical stability (hydrolysis kinetics) of etanidazole in buffered solutions at 80° C.; type: physicochemical; conditions: for kobs, observed first-order rate constant: mean, n = 3
Description: (§1) The k values shown in Tables 1-5 and FIG. 1 should be multipled by a factor of 2.303 to provide the actual k value.
(§2) The chemical stability of etanidazole was evaluated in solutions of varying composition stored at 80° C. Etanidazole was placed into suitable containers and sufficient buffer was added to result in a 1 mg/ml solution. A constant ionic strength of 0.3 was maintained with potassium chloride. All solutions were prepared in triplicate. The solution was divided into 2 ml sealed glass vials and was placed into cardboard storage boxes to protect the compound from light. At appropriate intervals, samples were removed from the stability chamber and cooled to room temperature. An aliquot of the sample was diluted with mobile phase containing internal standard prior to HPLC analysis. For those pH conditions where degradation was rapid, the sample aliquot was immediately quenched to neutral pH and room temperature.
(§3) Data were analyzed using methods as described by Martin et al. in "Physical Pharmacy", 3rd ed, pp 352-395 (1983).
In the intermediate pH range where buffers were employed, the observed first-order rate constant can be defined at any given pH with the following equation;
[…] [H+]+ko +kOH- [OH-]+kB [BT ]
where kH+ and kOH- are the second-order specific acid and specifiic base catalysis rate constants, respectively kB is the second-order rate constant for the catalysis due to the buffer, and [BT ] is the total buffer concentration. Plotting kobs vs [BT ] yields a slope of kB and a y-intercept of kH+ [H+]+ko +kOH- [OH-], the observed rate constant extrapolated to zero buffer concentration (k'). The observed rate constant extrapolated to zero buffer concentration (k') are used to generate the pH-rate profile (FIG. 1).
The buffer systems permit pH control through the equilibrium of their acidic and basic forms. Utilizing these equilibria, the rate constants for the individual buffer species may be calculated. In the acetate buffers, the second-order rate constant for the catalysis due to the acetate buffer is defined as follows;
[…]
where ^f CH3 COOH is the fraction of the acetate buffer in the neutral form, ^k (CH3 COOH) is the second-order rate constant for the catalysis due to the acetic acid species, ^f CH3 COO- is the fraction of the acetate buffer in the ionized form and ^k CH3 COO- is the second-order rate constant for the catalysis due to the acetate anion. Employing the same buffer for various pH conditions permits the determination of the second-order rate constants for the various species (Table 3).

[2] = Effect of initial etanidazole concentration on rate of decomposition in 0.05M citrate pH 5.5, 80° C.; type: physicochemical
Description: as §1, §2, §3
The effect of initial etanidazole concentration on the rate of decomposition was examined in 0.05M citrate pH 5.5, at 80° C. Initial concentrations of 1, 25 and 50 mg/ml were employed.

[3] = Equilibrium solubility of etanidazole in 0.05M acetate or citrate buffers at pH 4.0 with additives; type: physicochemical; conditions: for solubility: mean ± SD, read-out: Solubility at 4° C.
Description: Equilibrium solubility of etanidazole in 0.05M acetate or citrate buffers at pH 4.0 and the effects of additives were determined.

Description for physchem: Solubility studies were carried out by placing excess etanidazole into a suitable container and rotating end-to-end for twenty four hours at 25° C. The suspension was passed through a 0.2μ filter with the first portion discarded to ensure saturation of the filter. An aliquot of the filtrate was diluted and analyzed by HPLC and the remainder of the filtrate was employed for pH determination.

O=C(Cn1ccnc1[N+](=O)[O-])NCCO [Etanidazole]
kobs, observed first-order rate constant ([1]; 0.01M HCl pH 2.2, 80° C.): 0.00824 day⁻¹ | kobs, observed first-order rate constant ([1]; 0.013M Citrate pH 6.5, 80° C.): 0.0106 day⁻¹ | kobs, observed first-order rate constant ([1]; 0.02M Citrate pH 5.5, 80° C.): 0.00843 day⁻¹ | kobs, observed first-order rate constant ([1]; 0.025M Phosphate pH 6.5, 80° C.): 0.0195 day⁻¹ | kobs, observed first-order rate constant ([1]; 0.03M Citrate pH 6.5, 80° C.): 0.0119 day⁻¹ | kobs, observed first-order rate constant ([1]; 0.05M Acetate pH 4.0, 80° C.): 0.00119 day⁻¹ | kobs, observed first-order rate constant ([1]; 0.05M Acetate pH 5.0, 80° C.): 0.00386 day⁻¹ | kobs, observed first-order rate constant ([1]; 0.05M Borate pH 9.2, 80° C.): 0.0333 day⁻¹ | kobs, observed first-order rate constant ([1]; 0.05M Citrate pH 3.0, 80° C.): 0.00575 day⁻¹ | kobs, observed first-order rate constant ([1]; 0.05M Citrate pH 4.5, 80° C.): 0.00336 day⁻¹ | kobs, observed first-order rate constant ([1]; 0.05M Citrate pH 5.5, 80° C.): 0.00957 day⁻¹ | kobs, observed first-order rate constant ([1]; 0.05M Phosphate pH 6.5, 80° C.): 0.0135 day⁻¹ | kobs, observed first-order rate constant ([1]; 0.05M Phosphate pH 7.4, 80° C.): 0.0168 day⁻¹ | kobs, observed first-order rate constant ([1]; 0.065M Citrate pH 6.5, 80° C.): 0.0132 day⁻¹ | kobs, observed first-order rate constant ([1]; 0.1M Acetate pH 4.0, 80° C.): 0.00185 day⁻¹ | kobs, observed first-order rate constant ([1]; 0.1M Acetate pH 5.0, 80° C.): 0.00516 day⁻¹ | kobs, observed first-order rate constant ([1]; 0.1M Borate pH 9.2, 80° C.): 0.0382 day⁻¹ | kobs, observed first-order rate constant ([1]; 0.1M Citrate pH 3.0, 80° C.): 0.00882 day⁻¹ | kobs, observed first-order rate constant ([1]; 0.1M Citrate pH 4.5, 80° C.): 0.00587 day⁻¹ | kobs, observed first-order rate constant ([1]; 0.1M Citrate pH 5.5, 80° C.): 0.0101 day⁻¹ | kobs, observed first-order rate constant ([1]; 0.1M HCl pH 1.0, 80° C.): 0.0961 day⁻¹ | kobs, observed first-order rate constant ([1]; 0.1M NaOH pH 12.6, 80° C.): 13.1 day⁻¹ | kobs, observed first-order rate constant ([1]; 0.1M Phosphate pH 6.5, 80° C.): 0.0149 day⁻¹ | kobs, observed first-order rate constant ([1]; 0.1M Phosphate pH 7.4, 80° C.): 0.0187 day⁻¹ | kobs, observed first-order rate constant ([1]; 0.135M Phosphate pH 7.4, 80° C.): 0.0183 day⁻¹ | kobs, observed first-order rate constant ([1]; 0.18M Citrate pH 4.5, 80° C.): 0.00789 day⁻¹ | kobs, observed first-order rate constant ([1]; 0.25M Acetate pH 4.0, 80° C.): 0.00342 day⁻¹ | kobs, observed first-order rate constant ([1]; 0.25M Acetate pH 5.0, 80° C.): 0.00801 day⁻¹ | kobs, observed first-order rate constant ([1]; 0.25M Borate pH 9.2, 80° C.): 0.0596 day⁻¹ | kobs, observed first-order rate constant ([1]; 0.25M Citrate pH 3.0, 80° C.): 0.0197 day⁻¹ | kobs, observed first-order rate constant ([1]; 0.3M HCl pH 0.62, 80° C.): 0.263 day⁻¹ | kobs, observed first-order rate constant ([1]; 0.3M NaOH pH 13.1, 80° C.): 52.9 day⁻¹ | k', first-order rate constant extrapolated to zero buffer concentration ([1]; Acetate pH 4.0, 80° C.): 0.000688 day⁻¹ | kB, second-order rate constant for the buffer catalysis ([1]; Acetate pH 4.0, 80° C.): 1.27e-07 M⁻¹ s⁻¹ | k', first-order rate constant extrapolated to zero buffer concentration ([1]; Acetate pH 5.0, 80° C.): 0.00296 day⁻¹ | kB, second-order rate constant for the buffer catalysis ([1]; Acetate pH 5.0, 80° C.): 2.35e-07 M⁻¹ s⁻¹ | kB, second-order rate constant for the buffer species ([1]; Acetic acid, 80° C.): 9.41e-08 M⁻¹ s⁻¹ | kB, second-order rate constant for the buffer species ([1]; Acetic^-1, 80° C.): 3.17e-07 M⁻¹ s⁻¹ | k', first-order rate constant extrapolated to zero buffer concentration ([1]; Borate pH 9.2, 80° C.): 0.0258 day⁻¹ | kB, second-order rate constant for the buffer catalysis ([1]; Borate pH 9.2, 80° C.): 1.55e-06 M⁻¹ s⁻¹ | k', first-order rate constant extrapolated to zero buffer concentration ([1]; Citrate pH 3.0, 80° C.): 0.00204 day⁻¹ | kB, second-order rate constant for the buffer catalysis ([1]; Citrate pH 3.0, 80° C.): 8.15e-07 M⁻¹ s⁻¹ | k', first-order rate constant extrapolated to zero buffer concentration ([1]; Citrate pH 4.5, 80° C.): 0.00197 day⁻¹ | kB, second-order rate constant for the buffer catalysis ([1]; Citrate pH 4.5, 80° C.): 3.94e-07 M⁻¹ s⁻¹ | k', first-order rate constant extrapolated to zero buffer concentration ([1]; Citrate pH 5.5, 80° C.): 0.00824 day⁻¹ | kB, second-order rate constant for the buffer catalysis ([1]; Citrate pH 5.5, 80° C.): 2.29e-07 M⁻¹ s⁻¹ | k', first-order rate constant extrapolated to zero buffer concentration ([1]; Citrate pH 6.5, 80° C.): 0.0102 day⁻¹ | kB, second-order rate constant for the buffer catalysis ([1]; Citrate pH 6.5, 80° C.): 5.57e-07 M⁻¹ s⁻¹ | kB, second-order rate constant for the buffer species ([1]; Citrate^-3, 80° C.): 9.4e-07 M⁻¹ s⁻¹ | kB, second-order rate constant for the buffer species ([1]; Citric Acid, 80° C.): 1.03e-06 M⁻¹ s⁻¹ | kB, second-order rate constant for the buffer species ([1]; Dihydrogen citrate^-1, 80° C.): 5.3e-07 M⁻¹ s⁻¹ | kB, second-order rate constant for the buffer species ([1]; Dihydrogen phosphate^-1, 80° C.): 3.95e-07 M⁻¹ s⁻¹ | kB, second-order rate constant for the buffer species ([1]; Hydrogen citrate^-2, 80° C.): 8.23e-08 M⁻¹ s⁻¹ | kB, second-order rate constant for the buffer species ([1]; Hydrogen phosphate^-2, 80° C.): 1.17e-07 M⁻¹ s⁻¹ | k', first-order rate constant extrapolated to zero buffer concentration ([1]; Phosphate pH 6.5, 80° C.): 0.0119 day⁻¹ | kB, second-order rate constant for the buffer catalysis ([1]; Phosphate pH 6.5, 80° C.): 3.5e-07 M⁻¹ s⁻¹ | k', first-order rate constant extrapolated to zero buffer concentration ([1]; Phosphate pH 7.4, 80° C.): 0.0161 day⁻¹ | kB, second-order rate constant for the buffer catalysis ([1]; Phosphate pH 7.4, 80° C.): 2.2e-07 M⁻¹ s⁻¹ | primary route of degradation ([1]; analysis of degradation product, 80° C.): through the hydrolysis of the amide linkage | buffer catalysis of degradation ([1]; citrate and acetate at the pH minimum, 80° C.): Citrate and acetate were both catalytic at the pH minimum, with citrate being a stronger catalyst than acetate | pH at which overall rate constant was minimum ([1]; hydrolysis, 80° C.): approximately 4 | kinetics of hydrolysis ([1]; pH range of 0.6 to 12.6, 80° C.): apparent first-order kinetics | effect of concentration and ionic strength on stability ([1]; summary, 80° C.): negligible effects on the stability | effect of initial concentration on degradation ([2]; 1, 25 and 50 mg/ml): not concentration dependent in this range | kobs, observed first-order rate constant ([2]; initial concentration 1 mg/ml): 0.00957 ± 7.37e-05 day⁻¹ | kobs, observed first-order rate constant ([2]; initial concentration 25 mg/ml): 0.0127 ± 0.000586 day⁻¹ | kobs, observed first-order rate constant ([2]; initial concentration 50 mg/ml): 0.0127 ± 0.000153 day⁻¹ | solubility ([3]; 0.05m acetate buffer, aqueous buffer, acetate 0.05M pH 4.0, no additive): 83.4 ± 26.3 mg/mL (≈ 389 mM) | solubility ([3]; 0.05m acetate buffer, acetate 0.05M pH 4.0, 0.065% Imidazole): 64.8 ± 32.1 mg/mL (≈ 303 mM) | solubility ([3]; 0.05m acetate buffer, acetate 0.05M pH 4.0, 0.13% Ethylenediamine): 54.8 ± 30.9 mg/mL (≈ 256 mM) | solubility ([3]; 0.05m citrate buffer, aqueous buffer, citrate 0.05M pH 4.0, no additive): 36.6 ± 6.4 mg/mL (≈ 171 mM) | solubility ([3]; 0.05m citrate buffer, citrate 0.05M pH 4.0, 0.065% Imidazole): 95.4 ± 3.7 mg/mL (≈ 445 mM) | solubility ([3]; 0.05m citrate buffer, citrate 0.05M pH 4.0, 0.13% Ethylenediamine): 61.5 ± 33.9 mg/mL (≈ 287 mM) | effect of imidazole on etanidazole solubility ([3]; citrate buffer, pH 4.0, 4° C.): Imidazole increased etanidazole solubility in citrate buffer | solubility (physchem; initial dissolved concentration (before crystals appeared)): > 150 mg/mL | solubility at 24 h (physchem; solubility): 59.2 to 71.7 mg/mL (≈ 276 to 335 mM) | solubility at 24 h (physchem; water, pH 6.5, water, solubility in water): 68.1 mg/mL (≈ 318 mM)
